Data published in patent publication US4912036A, “Rapid differentiation of bacteria using cyclic polypeptide antibiotics” (Eastman Kodak Company, priority 1986, dated 1990).

Assays:
S. aureus [1] = test: Inhibition of RIND IX reduction by various cyclic polypeptide antibiotics; format: cell-based, Staphylococcus aureus; conditions: 635 nm
Method: The following materials were used in this example: stock solutions of RIND IX compound dispersion prepared as described above, glucose (10% in water), trimethyl-1,4-benzoquinone ETA (1.5 mg/ml methanol), and the antibiotics (1 mg/ml in dimethylsulfoxide). S. aureus cells were grown as described above. The final cell concentration in the assay mixture was about 4.3×10^8 cells/ml.
Test solutions were prepared by adding in the order: 1.2 ml of HEPES buffer, 50 μl glucose solution, 1.5 ml of RIND IX dispersion, 100 μl of antibiotic solution, 100 μl of cell suspension and 25 μl of ETA solution. Control solutions were prepared as described in Examples 2 and 3. Optical density readings (OD) were measured at 635 nm at 0 minutes and after incubation at 37° C. for 30 minutes for test and control solutions, and the change in density (ΔOD) was determined. Table VI below lists the results, expressed as corrected percent inhibition of the reduction of the RIND compound. The corrected percent inhibition is calculated by dividing the difference between the ΔOD obtained from the Cell Control without antibiotic and the ΔOD of the test solution, by ΔOD of the Cell Control without antibiotic. All readings were corrected by subtracting readings of the appropriate background Controls.
Solutions containing 2.9 ml HEPES, 50 μl of the antibiotic solution and 100 μl cell solution were incubated at 37° C. for 30 minutes, centrifuged for 10 minutes and decanted. The resulting pellet was then treated with 1.4 ml HEPES, 50 μl glucose solution, 1.5 ml RIND IX dispersion and 25 μl ETA solution, mixed well and the densities recorded as described above in Method 1. The corrected percent inhibition data was calculated as described in Method 1 above.

S. faecalis [2] = test: DCIP reduction solution assay, ΔOD 620 nm; format: cell-based, Streptococcus faecalis; conditions: S. faecalis (+) 5×10^7, tyrocidin 0.825 mg/ml, 37° C.
Method: (§1) These examples illustrate the differentiation of bacteria using a tetrazolium salt and phenolic dye as the reducible compounds and two cyclic polypeptide antibiotics according to the present invention. The tetrazolium salt was 3-(4,5-dimethyl-2-thiazolyl) -2,5-diphenyl-2H-tetrazolium bromide (MTT) which forms a colored formazan dye when reduced. The phenolic dye was 2,6-dichloroindophenol (DCIP) which forms a colorless species when reduced.
(§2) Solutions of the reducible compounds were prepared with the following: HEPES buffer (3 ml, 0.05 molar, pH 7.5), TRITON X-100 nonionic surfactant (1% concentration), glucose (50 μl of 10% in water), tryptose (50 μl of a 10% solution in water), MTT (25 μl of 5 mg/ml methanol) or DCIP (25 μl of 3 mg/ml methanol) and phenazine methosultate ETA (25 μl of 3 mg/ml methanol).
(§3) Test solutions were prepared from the following: reducible compound solution from above (200 μl), 50 μl of either gramicidin S solution (6 mg/ml methanol and 9 ml of buffer) or tyrocidin solution (100 mg/ml methanol and 8 ml of buffer) and 50 μl of cell suspension. […] The change in optical density (ΔOD) was determined after 30 minutes at 37° C. at 540 nm for the MTT assay and at 620 nm for the DCIP assay using a commercially available spectrophotometer.

P. vulgaris [3] = test: DCIP reduction solution assay, ΔOD 620 nm; format: cell-based, Proteus vulgaris; conditions: P. vulgaris (-) 5×10^7, tyrocidin 0.825 mg/ml, 37° C.
Method: as §1, §2, §3

K. pneumoniae [4] = test: RIND XXIX reduction solution assay, Δ fluorescence; format: cell-based, Klebsiella pneumoniae; conditions: K. pneumoniae (gram -) about 5×10^7 cells/ml, tyrocidin 3.3 mg/ml, 37° C.
Method: (§4) Bacterial suspensions were prepared by growing the cells in BHT broth to stationary phase overnight at 37° C. P. auruginosa was grown with agitation. About 40 ml of each overnight culture was centrifuged, decanted and washed once with 0.05 molar potassium phosphate buffer or 0.05 molar N-2-hydroxy-ethylpiperazine-N'-2-ethanesulfonic acid (HEPES) buffer, pH 7.8, and resuspended in buffer.
(§5) Dispersions containing RIND compounds were prepared by dissolving the RIND compound in N,N-dimethylformamide (DMF) at 16 mg compound per ml of solvent. An aliquot (250 μl) of the resulting solution was added to 500 μl of TRITON X-100 surfactant. This mixture was then added dropwise with stirring to 25 ml of 0.05 molar HEPES buffer. A dispersion of RIND XXIX was prepared similarly except that DMF was acidified with 0.1% sulfuric acid. Compositions containing water-compatible RIND compounds were prepared as described above except the surfactant was omitted.
(§6) Each test solution contained the following: dispersion of RIND XXIX (25 μl) prepared as described above, glucose (400 μl of 10% aqueous solution), tryptose (400 μl of 10% aqueous solution), trimethyl-1,4-benzoquinone ETA (500 μl of 1.5 mg/ml methanol). Aliquots (200 μl) of the mixture were mixed with solutions of the antibiotics (50 μl). The cell suspensions (50 μl) were then added. The final concentration of gramcidin S and tyrocidin were 0.1 mg/ml and 3.3 mg/ml, respectively. The final cell concentration was about 5×10^7 cells/ml. Cell control solutions contained all reagents except antibiotics. Background controls consisted of both buffer and solution controls. […]
(§7) The solutions were incubated at 37° C. for 30 minutes, and the change in fluorescence emission (Δ fluorescence) was determined as the difference between the readings taken when the solutions were first mixed and then after 30 minutes incubation. Measurements were made in a commercially available MICROFLUOR Reader (available from Dynatech Laboratories, Alexandria, Virginia, U.S.A.), modified with an excitation filter at 540 nm, an emission filter at 620 nm and a Xenon lamp. […]

E. coli [5] = test: DCIP reduction solution assay, ΔOD 620 nm; format: cell-based, Escherichia coli; conditions: E. coli (-) 5×10^7, tyrocidin 0.825 mg/ml, 37° C.
Method: as §1, §2, §3

E. cloacae [6] = test: RIND XXIX reduction solution assay, Δ fluorescence; format: cell-based, Enterobacter cloacae; conditions: E. cloacae (gram -) about 5×10^7 cells/ml, tyrocidin 3.3 mg/ml, 37° C.
Method: as §4, §5, §6, §7

E. coli [7] = test: RIND XXIX reduction solution assay, Δ fluorescence; format: cell-based, Escherichia coli; conditions: E. coli (gram -) about 5×10^7 cells/ml, tyrocidin 3.3 mg/ml, 37° C.
Method: as §4, §5, §6, §7

S. aureus [8] = test: RIND XXIX reduction solution assay, Δ fluorescence; format: cell-based, Staphylococcus aureus; conditions: S. aureus (gram +) about 5×10^7 cells/ml, tyrocidin 3.3 mg/ml, 37° C.
Method: as §4
as §5, with “Compositions containing water-compatible RIND compounds were prepared as described above except the surfactant was omitted.” left out
(§8) The solutions were incubated at 37° C. for 30 minutes, and the change in fluorescence emission (Δ fluorescence) was determined as the difference between the readings taken when the solutions were first mixed and then after 30 minutes incubation. Measurements were made in a commercially available MICROFLUOR Reader (available from Dynatech Laboratories, Alexandria, Virginia, U.S.A.), modified with an excitation filter at 540 nm, an emission filter at 620 nm and a Xenon lamp.

S. faecalis [9] = test: RIND XXIX reduction solution assay, Δ fluorescence; format: cell-based, Streptococcus faecalis; conditions: S. faecalis (gram +) about 5×10^7 cells/ml, tyrocidin 3.3 mg/ml, 37° C.
Method: as §4
as §5, with “Compositions containing water-compatible RIND compounds were prepared as described above except the surfactant was omitted.” left out
as §8

K. pneumoniae [10] = test: MTT reduction solution assay, ΔOD 540 nm; format: cell-based, Klebsiella pneumoniae; conditions: K. pneumoniae (-) 5×10^7, tyrocidin 0.825 mg/ml, 37° C.
Method: as §1, §2, §3

S. faecalis [11] = test: MTT reduction solution assay, ΔOD 540 nm; format: cell-based, Streptococcus faecalis; conditions: S. faecalis (+) 5×10^7, tyrocidin 0.825 mg/ml, 37° C.
Method: as §1, §2, §3

S. aureus [12] = test: MTT reduction solution assay, ΔOD 540 nm; format: cell-based, Staphylococcus aureus; conditions: S. aureus (+) 5×10^7, tyrocidin 0.825 mg/ml, 37° C.
Method: as §1, §2, §3

E. coli [13] = test: MTT reduction solution assay, ΔOD 540 nm; format: cell-based, Escherichia coli; conditions: E. coli (-) 5×10^7, tyrocidin 0.825 mg/ml, 37° C.
Method: as §1, §2, §3

[14] = system: viable gram-positive and gram-negative bacteria; test: Differentiation in RIND XXIX solution assays, overall result; format: cell-based; conditions: gramicidin S 0.1 mg/ml, tyrocidin 3.3 mg/ml
Method: Each test solution contained the following: dispersion of RIND XXIX (25 μl) prepared as described above, glucose (400 μl of 10% aqueous solution), tryptose (400 μl of 10% aqueous solution), trimethyl-1,4-benzoquinone ETA (500 μl of 1.5 mg/ml methanol). Aliquots (200 μl) of the mixture were mixed with solutions of the antibiotics (50 μl). The cell suspensions (50 μl) were then added. The final concentration of gramcidin S and tyrocidin were 0.1 mg/ml and 3.3 mg/ml, respectively. The final cell concentration was about 5×10^7 cells/ml. Cell control solutions contained all reagents except antibiotics. Background controls consisted of both buffer and solution controls. The buffer control contained all reagents except antibiotics and cells. The solution control contained all reagents except cells.
as §8
This example illustrates the practice of this invention to identify a Proteus species in solution. Test solutions and cell control solutions were prepared and tested as described in Example 2 and 3 except that polymixin B was used at 0.01 mg/ml of methanol. The final cell concentration was about 5×10^7 cells/ml.

P. vulgaris [15] = test: MTT reduction solution assay, ΔOD 540 nm; format: cell-based, Proteus vulgaris; conditions: P. vulgaris (-) 5×10^7, tyrocidin 0.825 mg/ml, 37° C.
Method: as §1, §2, §3

S. aureus [16] = test: DCIP reduction solution assay, ΔOD 620 nm; format: cell-based, Staphylococcus aureus; conditions: S. aureus (+) 5×10^7, tyrocidin 0.825 mg/ml, 37° C.
Method: as §1, §2, §3

K. pneumoniae [17] = test: DCIP reduction solution assay, ΔOD 620 nm; format: cell-based, Klebsiella pneumoniae; conditions: K. pneumoniae (-) 5×10^7, tyrocidin 0.825 mg/ml, 37° C.
Method: as §1, §2, §3

E. cloacae [18] = test: DCIP reduction solution assay, ΔOD 620 nm; format: cell-based, Enterobacter cloacae; conditions: E. cloacae (-) 5×10^7, tyrocidin 0.825 mg/ml, 37° C.
Method: as §1, §2, §3

P. aeruginosa [19] = test: DCIP reduction solution assay, ΔOD 620 nm; format: cell-based, Pseudomonas aeruginosa; conditions: P. aeruginosa (-) 5×10^7, tyrocidin 0.825 mg/ml, 37° C.
Method: as §1, §2, §3

E. cloacae [20] = test: MTT reduction solution assay, ΔOD 540 nm; format: cell-based, Enterobacter cloacae; conditions: E. cloacae (-) 5×10^7, tyrocidin 0.825 mg/ml, 37° C.
Method: as §1, §2, §3

P. aeruginosa [21] = test: MTT reduction solution assay, ΔOD 540 nm; format: cell-based, Pseudomonas aeruginosa; conditions: P. aeruginosa (-) 5×10^7, tyrocidin 0.825 mg/ml, 37° C.
Method: as §1, §2, §3

P. aeruginosa [22] = test: RIND XXIX reduction solution assay, Δ fluorescence; format: cell-based, Pseudomonas aeruginosa; conditions: P. aeruginosa (gram -) about 5×10^7 cells/ml, tyrocidin 3.3 mg/ml, 37° C.
Method: as §4, §5, §6, §7

P. vulgaris [23] = test: RIND XXIX reduction solution assay, Δ fluorescence; format: cell-based, Proteus vulgaris; conditions: P. vulgaris (gram -) about 5×10^7 cells/ml, tyrocidin 3.3 mg/ml, 37° C.
Method: as §4, §5, §6, §7

## ristocetin
S. aureus [1]; Test Method 1 (antibiotic in the test solution), S. aureus about 4.3×10^8 cells/ml, 100 μl of 1 mg/ml antibiotic solution, 30 minutes at 37° C.
  Corrected % Inhibition: No Inhibition

## tyrocidin
S. faecalis [2]
  ΔOD, 620 nm after 30 Minutes: 0.048
P. vulgaris [3]
  ΔOD, 620 nm after 30 Minutes: 0.941
K. pneumoniae [4]
  Δ Fluorescence (30 Minutes): > 4000
E. coli [5]
  ΔOD, 620 nm after 30 Minutes: 1.054
E. cloacae [6]
  Δ Fluorescence (30 Minutes): > 4000
E. coli [7]
  Δ Fluorescence (30 Minutes): > 4000
S. aureus [8]
  Δ Fluorescence (30 Minutes): 1834
S. faecalis [9]
  Δ Fluorescence (30 Minutes): 0880
K. pneumoniae [10]
  ΔOD, 540 nm after 30 Minutes: 0.842
S. faecalis [11]
  ΔOD, 540 nm after 30 Minutes: 0.048
S. aureus [12]
  ΔOD, 540 nm after 30 Minutes: 0.113
E. coli [13]
  ΔOD, 540 nm after 30 Minutes: 1.207
[14]
  differentiation between viable gram-positive and gram-negative bacteria, in words: can be used with RIND XXIX to differentiate between viable gram-positive and gram-negative bacteria
P. vulgaris [15]
  ΔOD, 540 nm after 30 Minutes: 0.778
S. aureus [16]
  ΔOD, 620 nm after 30 Minutes: 0.074
K. pneumoniae [17]
  ΔOD, 620 nm after 30 Minutes: 0.819
E. cloacae [18]
  ΔOD, 620 nm after 30 Minutes: 0.999
P. aeruginosa [19]
  ΔOD, 620 nm after 30 Minutes: 0.983
E. cloacae [20]
  ΔOD, 540 nm after 30 Minutes: 0.748
P. aeruginosa [21]
  ΔOD, 540 nm after 30 Minutes: 0.692
P. aeruginosa [22]
  Δ Fluorescence (30 Minutes): > 4000
P. vulgaris [23]
  Δ Fluorescence (30 Minutes): > 4000

## virginiamycin
S. aureus [1]; Test Method 2 (cells preincubated with 50 μl antibiotic solution 30 minutes, centrifuged, pellet assayed), S. aureus
  Corrected % Inhibition: No Inhibition
